Assay results reported in ChEMBL document CHEMBL5647690, “Inhibition of demethylases by GSK-J1/J4” (Nature, 2014).

Key:
[1] = molecular target: T1, Lysine-specific demethylase 3A (Homo sapiens, UniProt Q9Y4C1); experiment: Inhibition of KDM3A (2 to 1322 residues)(unknown origin) by Alphalisa assay
T1 sequence (Q9Y4C1 whole entry): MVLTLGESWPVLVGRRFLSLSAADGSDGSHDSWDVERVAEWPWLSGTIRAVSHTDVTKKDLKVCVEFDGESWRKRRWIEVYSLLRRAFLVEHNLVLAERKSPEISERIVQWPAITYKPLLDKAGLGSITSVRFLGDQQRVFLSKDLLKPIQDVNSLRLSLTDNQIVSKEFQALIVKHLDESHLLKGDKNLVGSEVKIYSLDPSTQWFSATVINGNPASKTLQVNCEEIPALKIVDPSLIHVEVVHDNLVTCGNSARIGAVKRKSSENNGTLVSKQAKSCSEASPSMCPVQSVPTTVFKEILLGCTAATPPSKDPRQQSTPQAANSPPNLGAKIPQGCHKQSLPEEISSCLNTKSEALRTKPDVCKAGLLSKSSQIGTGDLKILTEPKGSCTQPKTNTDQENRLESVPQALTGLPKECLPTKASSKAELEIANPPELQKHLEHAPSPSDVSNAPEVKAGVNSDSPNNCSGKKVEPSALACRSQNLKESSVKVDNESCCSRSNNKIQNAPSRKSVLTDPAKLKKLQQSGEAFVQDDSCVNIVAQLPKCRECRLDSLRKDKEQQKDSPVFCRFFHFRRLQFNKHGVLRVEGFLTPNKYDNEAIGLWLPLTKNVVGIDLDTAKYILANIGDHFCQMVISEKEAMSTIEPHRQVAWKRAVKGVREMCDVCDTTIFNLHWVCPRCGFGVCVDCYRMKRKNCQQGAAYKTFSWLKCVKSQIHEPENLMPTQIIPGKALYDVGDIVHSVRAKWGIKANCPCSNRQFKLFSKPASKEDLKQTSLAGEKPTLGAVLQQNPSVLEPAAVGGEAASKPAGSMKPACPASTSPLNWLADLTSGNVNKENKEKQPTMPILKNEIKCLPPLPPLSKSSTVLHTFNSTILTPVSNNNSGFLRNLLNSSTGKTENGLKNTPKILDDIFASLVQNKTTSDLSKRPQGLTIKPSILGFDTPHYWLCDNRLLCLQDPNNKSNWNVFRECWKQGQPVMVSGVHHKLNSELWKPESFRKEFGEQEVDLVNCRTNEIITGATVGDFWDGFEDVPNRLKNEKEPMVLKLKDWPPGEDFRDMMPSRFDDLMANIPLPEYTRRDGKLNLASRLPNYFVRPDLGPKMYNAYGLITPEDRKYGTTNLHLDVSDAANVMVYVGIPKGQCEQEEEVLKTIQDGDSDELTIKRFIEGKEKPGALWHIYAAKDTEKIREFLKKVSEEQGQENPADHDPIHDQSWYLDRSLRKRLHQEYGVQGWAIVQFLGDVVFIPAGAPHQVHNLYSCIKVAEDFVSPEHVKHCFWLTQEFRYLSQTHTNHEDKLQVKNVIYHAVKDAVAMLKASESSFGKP

[2] = tested on: Macrophage; experiment: Antiinflammatory activity against human primary macrophages assessed as inhibition of LPS-activated TNF-alpha production incubated for 6 hrs by ELISA; format: functional, cell-based
[3] = molecular target: T2, Lysine-specific demethylase 4C (Homo sapiens, UniProt Q9H3R0); experiment: Inhibition of epitope-tagged full length KDM4C (unknown origin) transfected in human U2OS cells using H3K9me3 peptide as substrate; format: cell-based
T2 sequence (Q9H3R0 whole entry): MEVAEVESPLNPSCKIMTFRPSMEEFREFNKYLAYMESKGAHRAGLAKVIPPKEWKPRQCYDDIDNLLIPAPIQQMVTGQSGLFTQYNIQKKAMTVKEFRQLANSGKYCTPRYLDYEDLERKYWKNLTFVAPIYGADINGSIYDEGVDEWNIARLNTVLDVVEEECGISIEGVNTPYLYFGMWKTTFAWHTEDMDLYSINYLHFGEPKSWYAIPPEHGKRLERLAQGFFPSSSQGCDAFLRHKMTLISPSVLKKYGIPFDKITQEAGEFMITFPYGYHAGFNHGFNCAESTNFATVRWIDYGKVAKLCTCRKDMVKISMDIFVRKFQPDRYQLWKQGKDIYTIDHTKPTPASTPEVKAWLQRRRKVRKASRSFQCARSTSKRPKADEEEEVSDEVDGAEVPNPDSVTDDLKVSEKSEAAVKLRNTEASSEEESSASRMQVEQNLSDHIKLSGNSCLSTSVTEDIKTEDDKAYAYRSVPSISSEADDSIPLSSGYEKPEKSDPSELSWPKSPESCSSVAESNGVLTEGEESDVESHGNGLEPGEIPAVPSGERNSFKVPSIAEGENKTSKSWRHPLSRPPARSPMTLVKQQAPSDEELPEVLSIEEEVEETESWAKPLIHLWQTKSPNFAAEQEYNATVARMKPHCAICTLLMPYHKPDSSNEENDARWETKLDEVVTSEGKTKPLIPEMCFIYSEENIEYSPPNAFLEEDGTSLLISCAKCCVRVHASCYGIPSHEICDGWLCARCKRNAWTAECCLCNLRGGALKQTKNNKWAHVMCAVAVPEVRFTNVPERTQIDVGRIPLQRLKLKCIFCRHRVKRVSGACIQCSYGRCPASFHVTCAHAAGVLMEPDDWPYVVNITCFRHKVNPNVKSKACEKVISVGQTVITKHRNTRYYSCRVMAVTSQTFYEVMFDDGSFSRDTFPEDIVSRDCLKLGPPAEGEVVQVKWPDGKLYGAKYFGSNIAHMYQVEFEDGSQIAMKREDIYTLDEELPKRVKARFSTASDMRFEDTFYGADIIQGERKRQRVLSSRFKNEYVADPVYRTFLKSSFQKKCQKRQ

[4] = Inhibition of epitope-tagged KDM5B (1 to 752 residues)(unknown origin) transfected in human U2OS cells using H3K4me2 peptide as substrate; format: cell-based
[5] = molecular target: Lysine-specific demethylase 5A (Homo sapiens, UniProt P29375); experiment: Inhibition of KDM5A (1 to 1090 residues)(unknown origin) by Alphalisa assay
Lysine-specific demethylase 5A, sequence (P29375 whole entry, the tested form may be a part): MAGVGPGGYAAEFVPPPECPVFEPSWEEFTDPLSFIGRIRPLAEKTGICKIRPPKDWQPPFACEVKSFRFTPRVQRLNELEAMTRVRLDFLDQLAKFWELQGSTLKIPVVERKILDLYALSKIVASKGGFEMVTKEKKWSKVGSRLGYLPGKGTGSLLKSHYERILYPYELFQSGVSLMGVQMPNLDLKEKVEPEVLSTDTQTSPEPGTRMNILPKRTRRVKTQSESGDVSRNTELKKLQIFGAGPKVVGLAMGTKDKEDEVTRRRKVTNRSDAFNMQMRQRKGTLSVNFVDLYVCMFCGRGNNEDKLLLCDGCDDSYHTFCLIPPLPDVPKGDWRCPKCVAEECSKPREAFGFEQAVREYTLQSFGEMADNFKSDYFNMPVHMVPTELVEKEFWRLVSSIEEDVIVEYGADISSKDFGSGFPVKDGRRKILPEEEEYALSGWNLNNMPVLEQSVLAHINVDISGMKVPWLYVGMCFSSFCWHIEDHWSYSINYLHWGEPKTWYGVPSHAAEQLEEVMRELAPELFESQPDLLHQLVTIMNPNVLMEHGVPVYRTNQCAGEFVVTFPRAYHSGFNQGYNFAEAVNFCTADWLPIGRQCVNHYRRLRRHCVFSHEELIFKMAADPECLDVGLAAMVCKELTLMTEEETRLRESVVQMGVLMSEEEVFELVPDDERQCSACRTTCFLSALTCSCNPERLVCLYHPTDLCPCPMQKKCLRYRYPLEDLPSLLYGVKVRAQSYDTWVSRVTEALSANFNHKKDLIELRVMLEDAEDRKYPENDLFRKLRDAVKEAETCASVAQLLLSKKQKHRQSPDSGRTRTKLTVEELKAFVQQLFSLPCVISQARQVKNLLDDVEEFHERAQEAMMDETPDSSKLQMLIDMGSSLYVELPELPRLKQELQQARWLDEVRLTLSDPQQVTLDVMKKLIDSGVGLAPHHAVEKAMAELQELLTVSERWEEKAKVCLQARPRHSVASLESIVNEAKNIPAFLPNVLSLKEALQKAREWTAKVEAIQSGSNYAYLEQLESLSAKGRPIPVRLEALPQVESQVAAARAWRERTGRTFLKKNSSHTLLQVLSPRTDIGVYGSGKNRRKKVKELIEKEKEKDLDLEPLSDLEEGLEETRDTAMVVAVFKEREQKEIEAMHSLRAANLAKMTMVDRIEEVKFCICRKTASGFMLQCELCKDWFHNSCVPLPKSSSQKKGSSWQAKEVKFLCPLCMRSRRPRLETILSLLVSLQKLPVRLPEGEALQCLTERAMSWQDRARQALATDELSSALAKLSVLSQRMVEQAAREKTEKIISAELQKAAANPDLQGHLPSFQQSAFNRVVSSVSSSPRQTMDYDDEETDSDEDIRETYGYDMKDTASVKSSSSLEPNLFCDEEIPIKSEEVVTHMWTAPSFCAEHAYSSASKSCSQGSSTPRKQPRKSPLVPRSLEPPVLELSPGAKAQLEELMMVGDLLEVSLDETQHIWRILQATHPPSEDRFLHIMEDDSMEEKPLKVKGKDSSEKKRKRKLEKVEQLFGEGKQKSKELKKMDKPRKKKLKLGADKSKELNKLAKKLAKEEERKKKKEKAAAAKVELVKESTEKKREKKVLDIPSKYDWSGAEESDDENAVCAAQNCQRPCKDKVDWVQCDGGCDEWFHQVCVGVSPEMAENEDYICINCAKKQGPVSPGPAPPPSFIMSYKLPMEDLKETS

SMILES | IC50 [1] | IC50 [2] | IC50 [3] | IC50 [4] | IC50 [5]
CCOC(=O)CCNc1cc(N2CCc3ccccc3CC2)nc(-c2ccccn2)n1 | 8.5 µM | 9 µM | 7.3 µM | 3.1 µM | 
O=C(O)CCNc1cc(N2CCc3ccccc3CC2)nc(-c2ccccn2)n1 |  |  |  |  | 6.8 µM
